# Columns and labels:
# [1] = test system: M. hemolytica KB345 (Tilmicosin-sensitivity strain); experiment: Paper disc assay, M. hemolytica KB345; format: cell-based, Mannhemia hemolytica
# Protocol: (§1) (1) Antibacterial activities against Mannheimia and Pasteurella were determined by the following steps: • 1) M. hemolytica KB345 (Tilmicosin-sensitivity strain) and M. hemolytica KB346 (Tilmicosin-low sensitivity strain) were provided. KB 345 strain stored at −80° C. was seeded to BHIB agar medium (10 mL) by using Microbank beads (Pro-Lab) and platinum nail. After statically incubating the KB 345 strain for 24 hours at 37° C., it was seeded to maintaining slant BHIB agar medium (7 mL) by using platinum loop, further statically incubated for 24 hours at 37° C. to obtain slant. One platinum loop of KB 345 strain stored at the slant was inoculated into a large test tube charged with BHIB liquid medium (10 mL) and then incubated for 24 hours at 37° C. with shaking. • 2) A paper disc (ADVANTEC, Φ:6 mm) was impregnated with a solution of test compound and dried under reduced pressure. • 3) To a melted BHIB agar medium was inoculated 1% of the broth obtained from step 1) above to prepare a test plate. After the medium set, the paper disc prepared in step 2) above was put on the plate and it was incubated at 37° C. • 4) After one day, the inhibition zone diameter and clarity (A to E) were determined. For KB346 strain, the same procedures were repeated.
# [2] = test system: M. hemolytica KB346 (Tilmicosin-low sensitivity strain); experiment: Paper disc assay, M. hemolytica KB346; format: cell-based, Mannhemia hemolytica
# Protocol: as §1
# Streptococcus uberis = experiment: MIC50 mastitis pathogens, broth dilution; format: cell-based; conditions: Str uberis, 7 to 12 isolates, 24 hours
# Source text: (§2) The activity of several compounds against bacterial mastitis pathogens has been tested under in-vitro conditions according to a recognized procedure (CLSI, document […]-A3, 2008). In this test 7 to 12 representative bacteria belonging to 7 bacterial species that typically cause mastitis in dairy cattle, i.e. Staphylococcus aureus, coagulase negative staphylococci (CNS), Streptococcus uberis, Streptococus dysgalactiae, Streptococcus agalactiae, Arcanobacterium pyogenes and Escherichia coli, were exposed to two-fold dilutions of the test compounds. After 24 hours of incubation the concentration that inhibited the growth of this bacteria was determined. It could be shown that all these bacterial mastitis pathogens were highly susceptible to the test compounds.
# [3] = test system: Streptococus dysgalactiae; experiment: MIC50 mastitis pathogens, broth dilution; format: cell-based; conditions: Str dysgalactiae, 7 to 12 isolates, 24 hours
# Source text: as §2
# [4] = test system: coagulase negative staphylococci (CNS); experiment: MIC50 mastitis pathogens, broth dilution; format: cell-based; conditions: 7 to 12 isolates, 24 hours
# Source text: as §2
# Staphylococcus aureus = experiment: MIC50 mastitis pathogens, broth dilution; format: cell-based; conditions: S. aureus, 7 to 12 isolates, 24 hours
# Source text: as §2
# Streptococcus agalactiae = experiment: MIC50 mastitis pathogens, broth dilution; format: cell-based; conditions: Str agalactiae, 7 to 12 isolates, 24 hours
# Source text: as §2
# Escherichia coli = experiment: MIC50 mastitis pathogens, broth dilution; format: cell-based; conditions: E. coli, 7 to 12 isolates, 24 hours
# Source text: as §2
# Arcanobacterium pyogenes = experiment: MIC50 mastitis pathogens, broth dilution; format: cell-based; conditions: Trueperella pyogenes, A. pyogenes, 7 to 12 isolates, 24 hours
# Source text: as §2
# [5] = test system: Xanthomonas campestris KB88; experiment: Paper disc assay, Xanthomonas campestris; format: cell-based; conditions: X
# Protocol: (§3) (2) Antibacterial activities against other bacteria were determined with Micrococcus luteus ATCC9341 (1), Bacillus subtilis […] (s), Escherichia coli NIHJ (c), Xanthomonas campestris KB88 (X), Mucor racemosus IFO 4581 (Mu) and Candida albicans ATCC 64548 (Ca).
# (§4) Bacillus subtilis ATCC6633 was incubated in Davis synthetic medium and then the seed broth was combined with the medium in the ratio of 1:99 to obtain a test plate. Micrococcus luteus ATCC9341, Escherichia coli NIHJ and Xanthomonas campestris KB88 were respectively incubated in Nutrient agar medium and inoculated at 0.2%, 0.5% and 1.0%. Mucor racemosus IFO 4581 and Candida albicans ATCC 64548 were respectively incubated in GY agar medium and then inoculated at 0.3% and 0.2%.
# (§5) A paper disc (ADVANTEC, Φ:6 mm) was impregnated with a solution of test compound and dried under reduced pressure. The paper disc was put on the test plate and it was incubated for 24 hours at 37° C. After incubation, the inhibition zone diameter and clarity (A to E) were determined.
# [6] = test system: Micrococcus luteus ATCC9341; experiment: Paper disc assay, Micrococcus luteus; format: cell-based; conditions: column 1
# Protocol: as §3, §4, §5
# [7] = test system: Bacillus subtilis ATCC6633; experiment: Paper disc assay, Bacillus subtilis; format: cell-based; conditions: S
# Protocol: as §3, §4, §5
structure (smiles),measurement,setting,value
"CCC1OC(=O)CC(O)C(C)C(OC2OC(C)C(O)C(N(C)C)C2O)C(CCN=[N+]=[N-])CC(C)C(=O)C=CC(C)=CC1COC1OC(C)C(O)C(OC)C1OC (stereo not drawn) [YT11, 20-azido-20-deoxodesmycosin]",Inhibition zone,"[1]; 3 mg/6 mm disk, Table 2",10.0 mm
same,Inhibition zone,"[1]; 10 mg/6 mm disk, Table 2",13.0 mm
same,Inhibition zone,"[1]; 30 mg/6 mm disk, Table 2",16.0 mm
same,Inhibition zone,"[1]; 100 mg/6 mm disk, Table 2",18.0 mm
same,Inhibition zone,"[2]; 100 mg/6 mm disk, Table 3",11.0 mm
"CC[C@H]1OC(=O)C[C@@H](O)[C@H](C)[C@@H](O[C@@H]2O[C@H](C)[C@@H](O)[C@H](N(C)C)[C@H]2O)[C@@H](CC=O)C[C@@H](C)C(=O)/C=C/C(C)=C/[C@@H]1CO[C@@H]1O[C@H](C)[C@@H](O)[C@@H](OC)[C@H]1OC [YT6, Desmycosin]",Inhibition zone,"[1]; 30 mg/6 mm disk, Table 2",10.5 mm
same,Inhibition zone,"[2]; 3 mg/6 mm disk, Table 3",8.5 mm
same,Inhibition zone,"[2]; 10 mg/6 mm disk, Table 3",13.5 mm
same,Inhibition zone,"[2]; 30 mg/6 mm disk, Table 3",17.5 mm
same,Inhibition zone,"[2]; 100 mg/6 mm disk, Table 3",21.0 mm
CC[C@H]1OC(=O)C[C@@H](O)[C@H](C)[C@@H](O[C@@H]2OC(C)[C@@H](O)C(N(C)C)C2O)[C@@H](CCN(C)Cc2cn(-c3cnc4ccccc4c3)nn2)C[C@@H](C)C(=O)/C=C/C(C)=C/[C@@H]1CO (stereo partly drawn) [YT650],MIC50,Streptococcus uberis,0.03 µg/mL
same,MIC50,[3],0.03 µg/mL
same,MIC50,[4],0.25 µg/mL
same,MIC50,Staphylococcus aureus,0.25 µg/mL
same,MIC50,Streptococcus agalactiae,0.008 µg/mL
same,MIC50,Escherichia coli,8 µg/mL
same,MIC50,Arcanobacterium pyogenes,0.004 µg/mL
CCC1OC(=O)CC(O)C(C)C(OC2OC(C)C(O)C(N(C)C)C2O)C(CC=O)CC(C)C(=O)C=CC(C)=CC1CI (stereo not drawn) [YT111],Inhibition zone,"[1]; 3 mg/6 mm disk, Table 4",11.5 mm
same,Inhibition zone,"[1]; 10 mg/6 mm disk, Table 4",15.5 mm
same,Inhibition zone,"[1]; 30 mg/6 mm disk, Table 4",20.0 mm
same,Inhibition zone,"[1]; 100 mg/6 mm disk, Table 4",25.0 mm
same,Inhibition zone,"[2]; 30 mg/6 mm disk, Table 5",8.5 mm
same,Inhibition zone,"[2]; 100 mg/6 mm disk, Table 5",13.0 mm
"CCC1OC(=O)CC(O)C(C)C(OC2OC(C)C(O)C(N(C)C)C2O)C(CCCl)CC(C)C(=O)C=CC(C)=CC1COC1OC(C)C(O)C(OC)C1OC (stereo not drawn) [YT8, 20-chloro-20-deoxodesmycosin]",Inhibition zone,"[1]; 10 mg/6 mm disk, Table 2",12.5 mm
same,Inhibition zone,"[1]; 30 mg/6 mm disk, Table 2",18.0 mm
same,Inhibition zone,"[1]; 100 mg/6 mm disk, Table 2",20.0 mm
same,Inhibition zone,"[2]; 30 mg/6 mm disk, Table 3",11.0 mm
same,Inhibition zone,"[2]; 100 mg/6 mm disk, Table 3",14.5 mm
"CCC1OC(=O)CC(O)C(C)C(OC2OC(C)C(O)C(N(C)C)C2O)C(CC=O)CC(C)C(=O)C=CC(C)=CC1CN=[N+]=[N-] (stereo not drawn) [YT107, 23-azido-23-deoxo-5-O-mycaminosyltylonolide]",Inhibition zone,"[1]; 3 mg/6 mm disk, Table 4",12.0 mm
same,Inhibition zone,"[1]; 10 mg/6 mm disk, Table 4",16.0 mm
same,Inhibition zone,"[1]; 30 mg/6 mm disk, Table 4",18.0 mm
same,Inhibition zone,"[1]; 100 mg/6 mm disk, Table 4",21.5 mm
same,Inhibition zone,"[2]; 30 mg/6 mm disk, Table 5",10.5 mm
same,Inhibition zone,"[2]; 100 mg/6 mm disk, Table 5",15.0 mm
"CC[C@H]1OC(=O)C[C@@H](O)[C@H](C)[C@@H](O[C@@H]2OC(C)[C@@H](O)C(N(C)C)C2O)[C@@H](CCn2cc(-c3ccccn3)nn2)C[C@@H](C)C(=O)/C=C/C(C)=C/[C@@H]1CO[C@@H]1OC(C)[C@@H](O)C(OC)C1OC (stereo partly drawn) [YT12, 20-(4-(pyridine-2-yl)-1H-1,2,3-triazol-1-yl)-20-deoxodesmycosin]",Inhibition zone,[5]; 0.1 mg/6 mm disc,7 mm
same,Inhibition zone,[5]; 10 mg/6 mm disc,27 mm
same,Inhibition zone,[6]; 0.1 mg/6 mm disc,12 mm
same,Inhibition zone,[6]; 1 mg/6 mm disc,18.5 mm
same,Inhibition zone,[6]; 10 mg/6 mm disc,25 mm
same,Inhibition zone,[7]; 0.1 mg/6 mm disc,7 mm
same,Inhibition zone,[7]; 1 mg/6 mm disc,12.5 mm
same,Inhibition zone,[7]; 10 mg/6 mm disc,14 mm

# From patent publication US9771389B2, “Tylosin derivatives and method for preparation thereof” (BAYER ANIMAL HEALTH GMBH, priority 2013, dated 2017)
